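Following 48 hours of exposure in 96-well plates, responses at five concentrations were used to interpolate endpoints linearly. Here, GI50 denotes the concentration required for 50% inhibition of growth. The concentration for full growth arrest is given as TGI.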
Key:
Assay in all cases: NCI-60 cell line screen, 48 h
[1] = tested on: MDA-N
[2] = tested on: T-47D breast
[3] = tested on: MDA-MB-231 breast
[4] = tested on: NCI-H460 lung
[5] = tested on: NCI-H522 lung
[6] = tested on: SK-OV-3 ovarian
[7] = tested on: SF-295 CNS
[8] = tested on: UO-31 renal
[9] = tested on: M14 melanoma
[10] = tested on: OVCAR-5 ovarian
[11] = tested on: KM12 colon
[12] = tested on: HS 578T breast
[13] = tested on: EKVX NSCLC
[14] = tested on: HL-60(TB) leukemia
[15] = tested on: SF-539 CNS
[16] = tested on: MOLT-4 leukemia
[17] = tested on: SR leukemia
[18] = tested on: TK-10 renal
[19] = tested on: A549 NSCLC
[20] = tested on: HOP-62 NSCLC
[21] = tested on: K-562 leukemia
[22] = tested on: SNB-19 CNS
[23] = tested on: OVCAR-4 ovarian
[24] = tested on: NCI/ADR-RES ovarian
[25] = tested on: SNB-75 CNS
[26] = tested on: RPMI-8226 leukemia
[27] = tested on: U251 CNS
[28] = tested on: MDA-MB-435
[29] = tested on: UACC-257 melanoma
[30] = tested on: IGROV1 ovarian
[31] = tested on: SK-MEL-28 melanoma
[32] = tested on: COLO 205 colon
[33] = tested on: SW-620 colon
[34] = tested on: SN12C renal
[35] = tested on: SF-268 CNS
[36] = tested on: PC-3 prostate
[37] = tested on: OVCAR-8 ovarian
[38] = tested on: MCF7 breast
[39] = tested on: SK-MEL-5 melanoma
[40] = tested on: CCRF-CEM leukemia
[41] = tested on: HCT-15 colon
[42] = tested on: ACHN renal
[43] = tested on: HCT-116 colon
[44] = tested on: 786-0 renal
[45] = tested on: HCC-2998 colon
[46] = tested on: MALME-3M melanoma
[47] = tested on: SK-MEL-2 melanoma
[48] = tested on: LOX IMVI melanoma
[49] = tested on: DU-145 prostate
[50] = tested on: CAKI-1 renal
[51] = tested on: NCI-H23 lung
[52] = tested on: RXF 393 renal
[53] = tested on: UACC-62 melanoma
[54] = tested on: HOP-92 NSCLC
[55] = tested on: NCI-H226 lung
[56] = tested on: HT29 colon
[57] = tested on: A498 renal
[58] = tested on: OVCAR-3 ovarian
[59] = tested on: BT-549 breast

For `O=c1c2ccccc2nc2n1CCc1c-2[nH]c2cc3c(cc12)OCO3`, the TGI [1] was > 25 µM, the TGI [2] was > 25 µM and the TGI [3] was > 25 µM. The GI50 [4] was 1.55 µM, the TGI [4] was > 25 µM and the TGI [5] was > 25 µM. For the same compound, the TGI [6] was > 25 µM, the TGI [7] was > 25 µM and the TGI [8] was > 25 µM. For the same compound, the TGI [9] was > 25 µM, the TGI [10] was > 25 µM and the TGI [11] was > 25 µM. For the same compound, the GI50 [12] was 5.05 µM, the TGI [12] was 17.5 µM and the TGI [13] was > 25 µM. The TGI [14] was > 25 µM, the TGI [15] was > 25 µM and the TGI [16] was > 25 µM. For the same compound, the TGI [17] was > 25 µM, the TGI [18] was > 25 µM and the GI50 [19] was > 25 µM. The TGI [19] was > 25 µM, the TGI [20] was > 25 µM and the TGI [21] was > 25 µM. It also gave a TGI [22] of 21.9 µM, a GI50 [23] of 1.5 µM and a TGI [23] of 6.35 µM. For the same compound, the TGI [24] was > 25 µM, the TGI [25] was 22 µM and the TGI [26] was > 25 µM. The TGI [27] was > 25 µM, the TGI [28] was > 25 µM and the TGI [29] was > 25 µM. The TGI [30] was > 25 µM, the TGI [31] was > 25 µM and the TGI [32] was > 25 µM. For the same compound, the TGI [33] was > 25 µM, the TGI [34] was > 25 µM and the TGI [35] was > 25 µM. For the same compound, the TGI [36] was > 25 µM, the TGI [37] was > 25 µM and the TGI [38] was > 25 µM. For the same compound, the TGI [39] was > 25 µM, the GI50 [40] was > 25 µM and the TGI [40] was > 25 µM. For the same compound, the TGI [41] was > 25 µM, the TGI [42] was > 25 µM and the TGI [43] was > 25 µM. For the same compound, the GI50 [44] was 1.08 µM, the TGI [44] was 7.69 µM and the TGI [45] was > 25 µM.

For `COC(C)(C)[C@@H]1CCCN1C1=C(C)C(=O)OC1`, the TGI [1] was > 100 µM, the TGI [2] was > 100 µM and the TGI [46] was > 100 µM. The TGI [47] was > 100 µM, the TGI [3] was > 100 µM and the TGI [4] was > 100 µM. The TGI [6] was > 100 µM, the TGI [7] was > 100 µM and the TGI [8] was > 100 µM. The TGI [10] was > 100 µM, the TGI [12] was > 100 µM and the TGI [14] was > 100 µM. The TGI [48] was > 100 µM, the TGI [15] was > 100 µM and the TGI [49] was > 100 µM. For the same compound, the TGI [50] was > 100 µM, the TGI [16] was > 100 µM and the TGI [17] was > 100 µM. For the same compound, the TGI [20] was > 100 µM, the TGI [21] was > 100 µM and the TGI [22] was > 100 µM. The TGI [24] was > 100 µM, the TGI [26] was > 100 µM and the TGI [27] was > 100 µM. The TGI [30] was > 100 µM, the TGI [51] was > 100 µM and the TGI [32] was > 100 µM. For the same compound, the TGI [34] was > 100 µM, the TGI [35] was > 100 µM and the TGI [36] was > 100 µM. The TGI [38] was > 100 µM, the TGI [39] was > 100 µM and the TGI [40] was > 100 µM. The TGI [52] was > 100 µM, the TGI [41] was > 100 µM and the TGI [42] was > 100 µM. For the same compound, the TGI [43] was > 100 µM, the TGI [53] was > 100 µM and the TGI [44] was > 100 µM. The TGI [45] was > 100 µM.

In the case of `COC(=O)CN=C1NC(=S)N(Cc2ccc(OC)cc2)C12CCCC2`, the TGI [1] was > 100 µM, the TGI [2] was > 100 µM and the TGI [54] was > 100 µM. For the same compound, the TGI [46] was > 100 µM, the TGI [47] was > 100 µM and the TGI [3] was > 100 µM. The TGI [4] was > 100 µM, the TGI [5] was > 100 µM and the TGI [55] was > 100 µM. The TGI [6] was > 100 µM, the TGI [7] was > 100 µM and the TGI [8] was > 100 µM. The TGI [9] was > 100 µM, the TGI [10] was > 100 µM and the TGI [11] was > 100 µM. The TGI [56] was > 100 µM, the TGI [13] was > 100 µM and the TGI [15] was > 100 µM. The TGI [49] was > 100 µM, the TGI [50] was > 100 µM and the TGI [16] was > 100 µM. For the same compound, the TGI [17] was > 100 µM, the TGI [19] was > 100 µM and the TGI [20] was > 100 µM. For the same compound, the TGI [21] was > 100 µM, the TGI [22] was > 100 µM and the TGI [23] was > 100 µM. For the same compound, the TGI [24] was > 100 µM, the TGI [25] was > 100 µM and the TGI [57] was > 100 µM. The TGI [26] was > 100 µM, the TGI [27] was > 100 µM and the TGI [28] was > 100 µM. For the same compound, the TGI [29] was > 100 µM, the TGI [51] was > 100 µM and the TGI [31] was > 100 µM. For the same compound, the TGI [32] was > 100 µM, the TGI [58] was > 100 µM and the TGI [33] was > 100 µM. The TGI [34] was > 100 µM, the TGI [35] was > 100 µM and the TGI [59] was > 100 µM. For the same compound, the TGI [36] was > 100 µM, the TGI [37] was > 100 µM and the TGI [38] was > 100 µM. For the same compound, the TGI [40] was > 100 µM, the TGI [52] was > 100 µM and the TGI [41] was > 100 µM. For the same compound, the TGI [42] was > 100 µM, the TGI [43] was > 100 µM and the TGI [53] was > 100 µM. For the same compound, the TGI [44] was > 100 µM and the TGI [45] was > 100 µM.

With `COc1ccc(N=C(CS(=O)c2ccc(C)cc2)C(F)(F)F)cc1` (stereo not drawn) the TGI [1] was > 100 µM, the TGI [2] was > 100 µM and the TGI [54] was > 100 µM. For the same compound, the TGI [46] was > 100 µM, the TGI [47] was > 100 µM and the TGI [3] was > 100 µM. The TGI [4] was > 100 µM, the TGI [5] was > 100 µM and the TGI [55] was > 100 µM. The TGI [6] was > 100 µM, the TGI [7] was > 100 µM and the TGI [8] was > 100 µM. The TGI [9] was > 100 µM, the TGI [10] was > 100 µM and the TGI [11] was > 100 µM. For the same compound, the TGI [56] was > 100 µM, the TGI [13] was > 100 µM and the TGI [14] was 50.9 µM. For the same compound, the TGI [48] was > 100 µM, the TGI [15] was > 100 µM and the TGI [49] was > 100 µM. For the same compound, the TGI [50] was > 100 µM, the TGI [16] was > 100 µM and the TGI [17] was > 100 µM. The TGI [18] was > 100 µM, the TGI [19] was > 100 µM and the TGI [21] was > 100 µM. For the same compound, the TGI [22] was > 100 µM, the TGI [23] was > 100 µM and the TGI [24] was > 100 µM. For the same compound, the TGI [25] was > 100 µM, the TGI [27] was > 100 µM and the TGI [28] was > 100 µM. The TGI [29] was > 100 µM, the TGI [30] was > 100 µM and the TGI [51] was > 100 µM. For the same compound, the TGI [31] was > 100 µM, the TGI [32] was > 100 µM and the TGI [58] was > 100 µM. For the same compound, the TGI [33] was > 100 µM, the TGI [34] was > 100 µM and the TGI [59] was > 100 µM. The TGI [36] was > 100 µM, the TGI [37] was > 100 µM and the TGI [38] was > 100 µM. The TGI [39] was > 100 µM, the TGI [40] was > 100 µM and the TGI [52] was > 100 µM. For the same compound, the TGI [41] was > 100 µM, the TGI [42] was > 100 µM and the TGI [43] was > 100 µM. For the same compound, the TGI [53] was > 100 µM, the TGI [44] was > 100 µM and the TGI [45] was > 100 µM.

From PubChem BioAssay (NCI)
